One may read the EC50 as the concentration giving half of the maximal effect.

Values after ≈ are worked out from the molar mass of the structure shown.

The values that follow come from patent US7371773B2, “Breast cancer resistance protein (BCRP) inhibitor” (Kabushiki Kaisha Yakult Honsha, priority 2003, dated 2008).

This test concerns A549/SN-38-4 cell line. Description: Overcoming anticancer drug resistance of A549/SN-38-4 cell line. The class given is cell-based, human. The conditions noted are these: Homo sapiens, A549; SN-38 resistance, concentration for 50% reduction of relative resistance value, 48 hours; read-out: Resistance overcoming effect EC50. On the procedure: The effect of a diphenylacrylonitrile derivative on BCRP-mediated anticancer drug resistance was studied by use of the human lung cancer A549/SN-38-4 cell line, which had acquired anticancer drug resistance through BCRP expression. The human lung cancer A549 cell line or the A549/SN-38-4 cell line was suspended in 10% FBS/Ham's F-12, and the resultant suspension was inoculated into a 96-well microplate, followed by culturing at 5% CO2 and 37° C. overnight (2×10^3 cells/50 μL/well). Thereafter, a 10% FBS/Ham's F-12 solution (25 μL) containing a diphenylacrylonitrile derivative and SN-38 or mitoxantrone was added to each of the wells, followed by culturing at 5% CO2 and 37° C. for 48 hours. After completion of culturing, the number of viable cells was counted by use of TetraColor ONE according to the attached instruction manual. […] The greater the relative resistance value, the higher the level of acquired resistance.
Consider `COc1ccc(/C=C(\C#N)c2ccc(O)cc2)cc1OC` [Compound 48, (Z)-3-(3,4-dimethoxy-phenyl)-2-(4-hydroxy-phenyl)-acrylonitrile], for which the EC50 was found to be 0.013 µg/mL (≈ 0.0462 µM).

Turning to `COc1ccc(/C(C#N)=C/c2cc([N+](=O)[O-])ccc2O)cc1OC` [Compound 76, (Z)-2-(3,4-dimethoxy-phenyl)-3-(2-hydroxy-5-nitro-phenyl)-acrylonitrile], the EC50 is 0.82 µg/mL (≈ 2.51 µM). Next, `COc1ccc(/C(C#N)=C/c2cc(F)ccc2F)cc1OC` [Compound 24, (Z)-3-(2,5-difluoro-phenyl)-2-(3,4-dimethoxy-phenyl)-acrylonitrile]: 0.0073 µg/mL (≈ 0.0242 µM); `COc1ccc(/C(C#N)=C/c2ccc([N+](=O)[O-])cc2)cc1OC` [Compound 19, (Z)-2-(3,4-dimethoxy-phenyl)-3-(4-nitro-phenyl)-acrylonitrile]: 0.019 µg/mL (≈ 0.0612 µM); `COc1ccc(/C(C#N)=C/c2cc(F)cc(F)c2F)cc1OC` [Compound 28, (Z)-2-(3,4-dimethoxy-phenyl)-3-(2,3,5-trifluoro-phenyl)-acrylonitrile]: 0.011 µg/mL (≈ 0.0345 µM). Turning to `COc1ccc(/C(C#N)=C/c2ccccc2[N+](=O)[O-])cc1OC` [Compound 37, (Z)-2-(3,4-dimethoxy-phenyl)-3-(2-nitro-phenyl)-acrylonitrile], the EC50 was found to be 0.085 µg/mL (≈ 0.274 µM). The value for `CCOC(=O)CCCCCCOc1ccc(/C=C(\C#N)c2ccc(OC)c(OC)c2)cc1` [Compound 66, ethyl 7-[4-[(Z)-2-cyano-2-(3,4-dimethoxy-phenyl)-vinyl]-phenoxy]-heptanoate] was 0.71 µg/mL (≈ 1.62 µM).

In the case of `COc1ccc(/C(C#N)=C/c2ccc(F)cc2)cc1OC` [Compound 18, (Z)-2-(3,4-dimethoxy-phenyl)-3-(4-fluoro-phenyl)-acrylonitrile], the EC50 came out at 0.0063 µg/mL (≈ 0.0222 µM). Next, `COC(=O)c1ccc(/C=C(\C#N)c2ccc(OC)c(OC)c2)cc1` [Compound 36, methyl 4-[(Z)-2-cyano-2-(3,4-dimethoxy-phenyl)-vinyl]-benzoate]: 0.2 µg/mL (≈ 0.619 µM); `COc1ccc(/C(C#N)=C/c2c(F)ccc(F)c2F)cc1OC` [Compound 29, (Z)-2-(3,4-dimethoxy-phenyl)-3-(2,3,6-trifluoro-phenyl)-acrylonitrile]: 0.1 µg/mL (≈ 0.313 µM); `COc1ccc(/C(C#N)=C/c2ccc(O)c(F)c2)cc1OC` [Compound 59, (Z)-2-(3,4-dimethoxy-phenyl)-3-(3-fluoro-4-hydroxy-phenyl)-acrylonitrile]: 0.043 µg/mL (≈ 0.144 µM). On to `N#C/C(=C\c1ccc(O)cc1)c1cc(C(F)(F)F)cc(C(F)(F)F)c1` [Compound 49, (Z)-2-(3,5-bis-trifluoromethyl-phenyl)-3-(4-hydroxy-phenyl)-acrylonitrile], for which the EC50 came to 0.2 µg/mL (≈ 0.56 µM). Next, `COc1ccc(/C(C#N)=C/c2cc(OC)c(O)c(OC)c2)cc1OC` [Compound 79, (Z)-2-(3,4-dimethoxy-phenyl)-3-(4-hydroxy-3,5-dimethoxy-phenyl)-acrylonitrile]: 0.017 µg/mL (≈ 0.0498 µM); `COc1ccc(/C(C#N)=C/c2ccc(O)cc2)cc1OC.[Na]` [Compound 17, (Z)-2-(3,4-dimethoxy-phenyl)-3-(4-hydroxy-phenyl)-acrylonitrile sodium salt]: 0.018 µg/mL. As to `CCOc1ccc([N+](=O)[O-])cc1/C=C(\C#N)c1ccc(OC)c(OC)c1` [Compound 52, (Z)-2-(3,4-dimethoxy-phenyl)-3-(2-ethoxy-5-nitro-phenyl)-acrylonitrile], the EC50 was found to be 0.024 µg/mL (≈ 0.0677 µM). As to `COc1cc(/C(C#N)=C/c2ccc(OC(C)=O)cc2)cc(OC)c1OC` [Compound 65, 4-[(Z)-2-cyano-2-(3,4,5-trimethoxy-phenyl)-vinyl]-phenyl acetate], the EC50 was 0.2 µg/mL. The value for `COc1ccc(C(C#N)=Cc2cccc(NC(C)=O)c2)cc1OC` [Compound 72, N-[3-[2-cyano-2-(3,4-dimethoxy-phenyl)-vinyl]-phenyl]-acetamide] was 0.028 µg/mL (≈ 0.0869 µM); that for `COc1ccc(/C(C#N)=C/c2c(F)cccc2F)cc1OC` [Compound 32, (Z)-3-(2,6-difluoro-phenyl)-2-(3,4-dimethoxy-phenyl)-acrylonitrile] was 0.15 µg/mL (≈ 0.498 µM).
